Laboratory results published in ChEMBL document CHEMBL5291721, “A preclinical secondary pharmacology resource illuminates target-adverse drug reaction associations of marketed drugs” (Nat Commun, 2023).

Columns and labels:
[1] = target: Acetylcholinesterase (Homo sapiens, UniProt P22303); type: functional
[2] = target: Beta-2 adrenergic receptor (Homo sapiens, UniProt P07550)
[3] = target: T1, Gastrin/cholecystokinin type B receptor (Homo sapiens, UniProt P32239)
T1 sequence (P32239 whole entry): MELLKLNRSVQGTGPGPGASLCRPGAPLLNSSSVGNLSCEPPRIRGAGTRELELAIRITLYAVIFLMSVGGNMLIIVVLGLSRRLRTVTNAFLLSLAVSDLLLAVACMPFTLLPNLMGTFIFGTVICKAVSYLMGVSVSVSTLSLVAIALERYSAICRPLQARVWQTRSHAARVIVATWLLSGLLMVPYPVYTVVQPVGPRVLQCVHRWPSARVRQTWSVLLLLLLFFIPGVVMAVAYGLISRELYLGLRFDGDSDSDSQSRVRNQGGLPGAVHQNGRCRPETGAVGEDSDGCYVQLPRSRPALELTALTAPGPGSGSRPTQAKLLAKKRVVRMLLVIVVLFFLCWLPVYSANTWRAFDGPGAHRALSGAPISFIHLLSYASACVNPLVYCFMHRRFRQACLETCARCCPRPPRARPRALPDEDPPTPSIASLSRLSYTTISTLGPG

[4] = target: D(3) dopamine receptor (Homo sapiens, UniProt P35462)
[5] = target: Histamine H2 receptor (Homo sapiens, UniProt P25021); type: functional, cell-based
[6] = target: T2, 5-hydroxytryptamine receptor 1A (Homo sapiens, UniProt P08908); type: functional, cell-based
T2 sequence (P08908 whole entry): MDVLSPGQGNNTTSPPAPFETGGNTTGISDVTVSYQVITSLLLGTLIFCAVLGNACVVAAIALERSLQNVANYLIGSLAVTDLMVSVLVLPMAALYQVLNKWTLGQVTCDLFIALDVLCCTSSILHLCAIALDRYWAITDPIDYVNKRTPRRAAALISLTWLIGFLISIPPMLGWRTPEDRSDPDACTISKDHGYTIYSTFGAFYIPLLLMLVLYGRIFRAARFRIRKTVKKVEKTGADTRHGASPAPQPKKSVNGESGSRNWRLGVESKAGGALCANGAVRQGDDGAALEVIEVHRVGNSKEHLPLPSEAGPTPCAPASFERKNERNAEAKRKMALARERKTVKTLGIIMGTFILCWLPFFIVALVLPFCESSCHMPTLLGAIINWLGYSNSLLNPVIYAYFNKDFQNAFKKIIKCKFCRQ

[7] = target: T2, 5-hydroxytryptamine receptor 1A
[8] = target: Melanocortin receptor 4 (Homo sapiens, UniProt P32245)
[9] = target: Prostaglandin G/H synthase 1 (Homo sapiens, UniProt P23219); type: functional
[10] = target: Sodium-dependent noradrenaline transporter (Homo sapiens, UniProt P23975)
[11] = target: Sodium-dependent dopamine transporter (Homo sapiens, UniProt Q01959)
[12] = target: Mu-type opioid receptor (Homo sapiens, UniProt P35372)
[13] = target: T3, Progesterone receptor (Homo sapiens, UniProt P06401); type: functional
T3 sequence (P06401 whole entry): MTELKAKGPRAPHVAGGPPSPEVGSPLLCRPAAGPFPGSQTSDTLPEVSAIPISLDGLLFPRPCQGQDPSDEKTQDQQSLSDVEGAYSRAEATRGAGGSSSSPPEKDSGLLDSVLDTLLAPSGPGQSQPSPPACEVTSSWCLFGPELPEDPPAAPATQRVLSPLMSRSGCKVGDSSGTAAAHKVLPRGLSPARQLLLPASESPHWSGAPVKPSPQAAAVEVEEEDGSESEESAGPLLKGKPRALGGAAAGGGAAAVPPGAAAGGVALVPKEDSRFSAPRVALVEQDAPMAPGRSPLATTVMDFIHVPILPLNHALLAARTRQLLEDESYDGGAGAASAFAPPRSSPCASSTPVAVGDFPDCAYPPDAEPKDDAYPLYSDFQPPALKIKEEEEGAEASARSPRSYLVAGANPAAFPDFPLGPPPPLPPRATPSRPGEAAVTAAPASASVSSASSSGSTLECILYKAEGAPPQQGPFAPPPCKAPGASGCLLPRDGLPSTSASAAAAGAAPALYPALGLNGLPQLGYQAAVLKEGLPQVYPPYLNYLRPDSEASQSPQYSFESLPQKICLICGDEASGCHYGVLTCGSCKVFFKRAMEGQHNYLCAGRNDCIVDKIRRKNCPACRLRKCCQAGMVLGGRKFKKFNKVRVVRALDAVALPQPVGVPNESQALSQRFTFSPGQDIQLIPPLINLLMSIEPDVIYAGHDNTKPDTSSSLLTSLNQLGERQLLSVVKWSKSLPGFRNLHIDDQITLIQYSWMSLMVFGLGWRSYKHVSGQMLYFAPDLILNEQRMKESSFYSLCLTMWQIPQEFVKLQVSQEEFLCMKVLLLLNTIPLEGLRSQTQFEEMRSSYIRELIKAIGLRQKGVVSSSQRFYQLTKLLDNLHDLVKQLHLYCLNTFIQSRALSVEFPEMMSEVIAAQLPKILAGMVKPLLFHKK

[14] = target: T3, Progesterone receptor; type: functional; remark: listed apart in the source
Also: assay procedure not described here.

Mu-type opioid receptor, sequence (P35372 whole entry): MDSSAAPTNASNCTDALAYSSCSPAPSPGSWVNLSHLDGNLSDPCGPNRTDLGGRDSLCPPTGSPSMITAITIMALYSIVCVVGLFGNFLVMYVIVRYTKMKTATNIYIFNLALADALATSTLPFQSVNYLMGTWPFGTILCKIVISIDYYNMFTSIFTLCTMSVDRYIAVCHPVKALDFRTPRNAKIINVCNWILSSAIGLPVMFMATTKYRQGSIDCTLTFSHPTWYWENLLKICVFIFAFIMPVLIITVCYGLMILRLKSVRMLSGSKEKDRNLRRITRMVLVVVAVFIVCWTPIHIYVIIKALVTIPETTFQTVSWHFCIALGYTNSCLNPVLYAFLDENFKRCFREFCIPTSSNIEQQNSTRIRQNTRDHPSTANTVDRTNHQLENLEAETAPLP
Sodium-dependent dopamine transporter, sequence (Q01959 whole entry): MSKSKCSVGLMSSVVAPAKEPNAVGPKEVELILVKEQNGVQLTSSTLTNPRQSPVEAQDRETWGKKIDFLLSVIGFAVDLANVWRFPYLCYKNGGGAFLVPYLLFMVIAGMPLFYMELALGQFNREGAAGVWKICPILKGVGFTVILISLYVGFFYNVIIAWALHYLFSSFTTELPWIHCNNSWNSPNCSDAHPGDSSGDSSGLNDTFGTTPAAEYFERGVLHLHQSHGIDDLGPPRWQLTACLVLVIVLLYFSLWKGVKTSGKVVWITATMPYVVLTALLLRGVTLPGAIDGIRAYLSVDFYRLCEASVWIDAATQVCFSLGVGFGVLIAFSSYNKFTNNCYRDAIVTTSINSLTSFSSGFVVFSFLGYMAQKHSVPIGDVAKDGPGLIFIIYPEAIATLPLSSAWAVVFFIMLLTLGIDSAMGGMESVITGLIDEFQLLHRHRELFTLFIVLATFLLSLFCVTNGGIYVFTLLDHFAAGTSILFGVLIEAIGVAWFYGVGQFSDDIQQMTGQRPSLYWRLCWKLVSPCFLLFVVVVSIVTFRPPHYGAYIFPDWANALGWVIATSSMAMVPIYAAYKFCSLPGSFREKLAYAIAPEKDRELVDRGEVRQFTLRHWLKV
Acetylcholinesterase, sequence (P22303 whole entry): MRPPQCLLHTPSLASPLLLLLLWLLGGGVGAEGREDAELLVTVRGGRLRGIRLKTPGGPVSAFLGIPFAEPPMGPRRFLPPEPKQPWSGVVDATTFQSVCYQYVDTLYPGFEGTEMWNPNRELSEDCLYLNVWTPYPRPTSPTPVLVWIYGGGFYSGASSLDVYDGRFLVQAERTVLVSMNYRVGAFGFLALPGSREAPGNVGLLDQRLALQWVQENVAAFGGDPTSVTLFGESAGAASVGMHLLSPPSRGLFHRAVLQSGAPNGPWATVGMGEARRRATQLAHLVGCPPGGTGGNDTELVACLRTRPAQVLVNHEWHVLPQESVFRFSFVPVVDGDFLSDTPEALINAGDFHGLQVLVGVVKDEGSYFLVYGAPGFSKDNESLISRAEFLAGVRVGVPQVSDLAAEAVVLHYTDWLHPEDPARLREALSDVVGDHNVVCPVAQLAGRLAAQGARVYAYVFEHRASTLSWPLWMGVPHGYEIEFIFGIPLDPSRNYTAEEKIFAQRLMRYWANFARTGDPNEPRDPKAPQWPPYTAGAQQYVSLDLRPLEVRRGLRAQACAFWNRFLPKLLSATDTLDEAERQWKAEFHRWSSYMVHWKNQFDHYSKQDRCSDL
Melanocortin receptor 4, sequence (P32245 whole entry): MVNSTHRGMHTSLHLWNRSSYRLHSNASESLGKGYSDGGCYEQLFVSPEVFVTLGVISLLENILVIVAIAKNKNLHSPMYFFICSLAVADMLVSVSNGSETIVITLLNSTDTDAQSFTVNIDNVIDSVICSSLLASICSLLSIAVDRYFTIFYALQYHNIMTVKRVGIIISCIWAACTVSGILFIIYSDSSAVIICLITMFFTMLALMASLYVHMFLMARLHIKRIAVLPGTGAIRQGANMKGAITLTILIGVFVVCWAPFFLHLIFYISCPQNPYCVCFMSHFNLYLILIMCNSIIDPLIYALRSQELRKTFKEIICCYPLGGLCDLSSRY
Sodium-dependent noradrenaline transporter, sequence (P23975 whole entry): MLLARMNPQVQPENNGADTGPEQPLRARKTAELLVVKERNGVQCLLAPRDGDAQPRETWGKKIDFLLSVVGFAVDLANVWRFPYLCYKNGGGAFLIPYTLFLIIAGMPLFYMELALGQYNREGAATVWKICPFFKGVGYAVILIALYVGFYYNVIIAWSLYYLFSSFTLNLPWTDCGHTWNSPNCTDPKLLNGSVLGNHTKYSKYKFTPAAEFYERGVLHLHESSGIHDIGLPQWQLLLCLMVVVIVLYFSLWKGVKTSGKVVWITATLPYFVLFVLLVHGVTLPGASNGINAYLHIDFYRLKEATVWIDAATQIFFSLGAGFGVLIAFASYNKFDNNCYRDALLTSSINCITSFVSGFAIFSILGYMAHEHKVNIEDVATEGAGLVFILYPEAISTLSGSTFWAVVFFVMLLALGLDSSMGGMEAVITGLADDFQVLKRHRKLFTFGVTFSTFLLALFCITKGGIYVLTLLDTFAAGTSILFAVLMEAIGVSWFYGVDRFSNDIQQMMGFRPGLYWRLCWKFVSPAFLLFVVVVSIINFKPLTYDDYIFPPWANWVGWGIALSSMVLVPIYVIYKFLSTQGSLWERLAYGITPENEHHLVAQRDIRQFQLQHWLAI
Prostaglandin G/H synthase 1, sequence (P23219 whole entry): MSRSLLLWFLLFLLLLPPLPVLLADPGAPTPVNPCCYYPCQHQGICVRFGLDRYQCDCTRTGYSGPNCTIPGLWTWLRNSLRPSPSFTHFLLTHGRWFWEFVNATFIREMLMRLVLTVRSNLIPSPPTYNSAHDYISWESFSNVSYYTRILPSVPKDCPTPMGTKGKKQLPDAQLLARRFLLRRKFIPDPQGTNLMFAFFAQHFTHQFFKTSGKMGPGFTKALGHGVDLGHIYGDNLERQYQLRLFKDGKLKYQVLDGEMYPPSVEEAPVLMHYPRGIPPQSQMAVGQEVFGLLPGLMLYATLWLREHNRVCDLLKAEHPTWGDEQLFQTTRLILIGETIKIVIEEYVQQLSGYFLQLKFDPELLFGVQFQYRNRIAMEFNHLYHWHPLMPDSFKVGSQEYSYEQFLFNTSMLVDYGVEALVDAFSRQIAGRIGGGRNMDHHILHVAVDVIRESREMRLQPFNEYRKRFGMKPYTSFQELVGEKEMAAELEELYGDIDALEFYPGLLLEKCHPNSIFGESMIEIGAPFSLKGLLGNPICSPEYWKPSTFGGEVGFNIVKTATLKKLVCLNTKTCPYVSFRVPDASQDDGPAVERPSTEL
Histamine H2 receptor, sequence (P25021 whole entry): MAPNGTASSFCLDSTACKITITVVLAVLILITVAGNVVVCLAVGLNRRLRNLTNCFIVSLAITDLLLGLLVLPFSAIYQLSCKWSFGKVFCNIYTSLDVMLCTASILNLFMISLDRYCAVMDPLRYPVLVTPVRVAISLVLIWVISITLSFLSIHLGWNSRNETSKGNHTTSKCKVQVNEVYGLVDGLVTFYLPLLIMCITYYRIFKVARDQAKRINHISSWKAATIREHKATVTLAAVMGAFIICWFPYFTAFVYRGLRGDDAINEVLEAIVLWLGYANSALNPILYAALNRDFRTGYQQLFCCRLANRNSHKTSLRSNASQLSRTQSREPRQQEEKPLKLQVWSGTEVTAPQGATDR
D(3) dopamine receptor, sequence (P35462 whole entry): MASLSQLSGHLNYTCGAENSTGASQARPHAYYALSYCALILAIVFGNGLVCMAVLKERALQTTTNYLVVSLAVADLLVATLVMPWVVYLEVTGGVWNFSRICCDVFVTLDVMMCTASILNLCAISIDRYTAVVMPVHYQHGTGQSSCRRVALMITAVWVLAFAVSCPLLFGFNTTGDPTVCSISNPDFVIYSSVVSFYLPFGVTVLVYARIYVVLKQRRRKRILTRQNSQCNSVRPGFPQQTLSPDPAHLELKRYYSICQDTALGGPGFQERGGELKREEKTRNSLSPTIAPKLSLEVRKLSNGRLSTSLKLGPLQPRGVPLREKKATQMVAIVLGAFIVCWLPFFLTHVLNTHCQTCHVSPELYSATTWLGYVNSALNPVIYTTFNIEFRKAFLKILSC
Beta-2 adrenergic receptor, sequence (P07550 whole entry): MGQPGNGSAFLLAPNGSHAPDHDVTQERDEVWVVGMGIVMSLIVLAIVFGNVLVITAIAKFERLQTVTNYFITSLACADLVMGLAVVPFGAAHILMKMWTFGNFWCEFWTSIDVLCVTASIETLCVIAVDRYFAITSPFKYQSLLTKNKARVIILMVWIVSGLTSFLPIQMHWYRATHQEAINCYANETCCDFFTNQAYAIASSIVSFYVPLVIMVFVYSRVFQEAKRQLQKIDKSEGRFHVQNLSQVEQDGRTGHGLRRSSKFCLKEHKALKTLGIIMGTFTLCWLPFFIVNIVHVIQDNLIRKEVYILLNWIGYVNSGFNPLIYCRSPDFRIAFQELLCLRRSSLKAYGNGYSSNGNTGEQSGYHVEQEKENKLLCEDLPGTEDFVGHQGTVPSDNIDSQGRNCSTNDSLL

Row | SMILES | AC50 [1] [µM] | AC50 [2] [µM] | AC50 [3] [µM] | AC50 [4] [µM] | AC50 [5] [µM] | AC50 [6] [µM] | AC50 [7] [µM] | AC50 [8] [µM] | AC50 [9] [µM] | AC50 [10] [µM] | AC50 [11] [µM] | AC50 [12] [µM] | AC50 [13] [µM] | AC50 [14] [µM]
1 | CO[C@H]1C[C@@H]2CC[C@@H](C)[C@@](O)(O2)C(=O)C(=O)N2CCCC[C@H]2C(=O)O[C@H]([C@H](C)C[C@@H]2CC[C@@H](O)[C@H](OC)C2)CC(=O)[C@H](C)/C=C(\C)[C@@H](O)[C@@H](OC)C(=O)[C@H](C)C[C@H](C)/C=C/C=C/C=C/1C [SIROLIMUS] | > 30 | > 10 | > 30 | > 30 | > 10 | > 10 | > 30 | > 30 | 23.3 | > 30 | > 30 | > 10 |  | 
2 | Cc1cccc(Nc2ccccc2C(=O)O)c1C [MEFENAMIC ACID] | > 30 | > 10 |  | > 30 | > 10 | > 10 | > 30 | > 10 | 0.0115 | > 30 | > 30 | > 30 | > 10 | > 10
3 | Cc1cn([C@H]2C=C[C@@H](CO)O2)c(=O)[nH]c1=O [STAVUDINE] | > 30 | > 10 | > 30 | > 30 | > 10 | > 10 | > 30 | > 30 | > 30 | > 30 | > 30 | > 30 |  | 
4 | CCC(C)n1ncn(-c2ccc(N3CCN(c4ccc(OCC5COC(Cn6cncn6)(c6ccc(Cl)cc6Cl)O5)cc4)CC3)cc2)c1=O (stereo not given) [ITRACONAZOLE] |  | > 30 | > 30 |  | > 10 | > 30 |  | > 30 |  |  |  | > 10 | > 30 | > 30
5 | Cc1ccc(-c2cc(C(F)(F)F)nn2-c2ccc(S(N)(=O)=O)cc2)cc1 [CELECOXIB] |  | > 10 | > 10 |  | > 10 | > 10 |  | > 10 |  |  |  | > 30 |  | 
6 | Clc1ccc2nsnc2c1NC1=NCCN1 [TIZANIDINE] |  | > 10 | > 30 |  | 0.93 | > 10 |  | > 30 |  |  |  | > 30 |  | 
7 | CS(=O)(=O)c1ccc(C2=C(c3ccccc3)C(=O)OC2)cc1 [ROFECOXIB] | > 30 | > 10 | > 30 | > 30 | > 30 | 35 | > 30 | 24.1 |  | > 30 | > 30 | > 10 |  | 
8 | C[C@]12CCC(=O)C=C1CC[C@@H]1[C@@H]2[C@@H](O)C[C@@]2(C)[C@H]1CC[C@]2(O)C(=O)CO [HYDROCORTISONE] |  | > 10 | > 30 |  | > 10 | > 10 |  | > 30 |  |  |  | > 30 |  | 
9 | CN(C)/N=N/c1[nH]cnc1C(N)=O [DACARBAZINE] |  | > 10 |  |  | > 10 | > 10 |  | > 10 |  |  |  | > 30 | > 10 | > 10
10 | CC[C@H]1OC(=O)[C@H](C)[C@@H](O[C@H]2C[C@@](C)(OC)[C@@H](O)[C@H](C)O2)[C@H](C)[C@@H](O[C@@H]2O[C@H](C)C[C@H](N(C)C)[C@H]2O)[C@](C)(O)C[C@@H](C)CN(C)[C@H](C)[C@@H](O)[C@]1(C)O [AZITHROMYCIN] | > 30 |  | > 30 | > 30 | > 10 | > 10 | > 30 | > 30 | > 30 | > 30 | > 30 | > 10 |  | 
11 | NCC(CC(=O)O)c1ccc(Cl)cc1 (stereo not given) [BACLOFEN] | > 30 | > 10 | > 30 | 14.7 | > 10 | > 30 | > 30 | > 30 | > 30 | > 30 | > 30 | > 30 | > 30 | > 30
12 | Clc1ccc(C(c2ccccc2Cl)C(Cl)Cl)cc1 (stereo not given) [MITOTANE] |  | > 10 |  |  | > 10 | > 10 |  | > 10 |  |  |  | > 30 | 0.45 | 
13 | CCOC(=O)[C@H](CCc1ccccc1)N[C@@H](C)C(=O)N1[C@H](C(=O)O)C[C@@H]2CCC[C@@H]21 |  | > 10 | > 30 |  | > 10 | > 10 |  | > 30 |  |  |  | > 30 |  | 
14 | CC(C)C[C@H]1C(=O)N2CCC[C@H]2[C@]2(O)O[C@](NC(=O)[C@@H]3C=C4c5cccc6[nH]c(Br)c(c56)C[C@H]4N(C)C3)(C(C)C)C(=O)N12 [BROMOCRIPTINE] | 1.78 | 8.4 | > 30 |  | 2.13 | 0.17 | 0.003 | > 30 | 4.61 | > 30 | > 30 | 14 | > 30 | > 30
15 | C[C@@H](O)[C@H]1C(=O)N2C(C(=O)O)=C(S[C@@H]3CN[C@H](C(=O)N(C)C)C3)[C@H](C)[C@H]12 [MEROPENEM] |  | > 10 |  |  | > 10 | > 300 |  | > 10 |  |  |  | > 300 | > 300 | > 300
16 | Cc1cn([C@H]2C[C@H](N=[N+]=[N-])[C@@H](CO)O2)c(=O)[nH]c1=O [ZIDOVUDINE] | > 30 | > 10 | > 30 | > 30 | > 10 | > 10 | > 30 | > 30 | > 30 | > 30 | > 30 | > 30 |  | 
17 | CN(C)CCC(c1ccc(Cl)cc1)c1ccccn1 (stereo not given) [CHLORPHENIRAMINE] |  | > 10 | > 30 |  | > 10 | > 10 |  | > 30 |  |  |  | > 10 |  | 
18 | CCCSc1ccc2nc(NC(=O)OC)[nH]c2c1 [ALBENDAZOLE] |  | > 30 |  |  | > 10 | > 10 |  | > 10 |  |  |  | > 30 | > 10 | > 10
19 | CCCN1C[C@H](CSC)C[C@@H]2c3cccc4[nH]cc(c34)C[C@H]21 [PERGOLIDE] |  | > 10 | > 30 |  | 0.95 |  |  | > 30 |  |  |  | > 30 | > 30 | > 30
